Experimental data from patent US10813920B2, “Drug for treating corneal endothelium by promoting cell proliferation or inhibiting cell damage” (THE DOSHISHA, priority 2013, dated 2020).
Counter-ions that a name gives are not always drawn. Residues, ends and D or L forms follow the SMILES beside them. *: point of attachment. Cbz = O=C(OCc1ccccc1)*; CH2F = FC*

Key:
[1] = water; hydrochloride salt; cited from earlier work
[2] = test system: cultured monkey corneal endothelial cells; experiment: p38 MAPK activation induces apoptosis: Western blot in cultured monkey corneal endothelial cells; type: cell-based; conditions: Western blot after 9 hours
Description: 1×10^5 cultured monkey corneal endothelial cells were seeded on a 12-well plate coated with an FNC Coating Mix and cultured for about 5 days until reaching confluence under the condition of 5% CO2 at 37° C. The medium used was Dulbecco's Modified Eagle Medium (Gibco, 12320-032), 10% FBS, 1% Penicillin-Streptomycin (nacalai tesque, 26252-94).
As acclimation treatment, Z-VAD (OMe)-FMK (Wako Pure Chemical Industries, Ltd. 269-02071) was then added at a concentration of 10 μM and the cells were incubated for 16 hours under the condition of 5% CO2 at 37° C. For the Control group and anisomysin group, a solvent of a reagent Dimethyl Sulfoxide (DMSO) (Dimethyl Sulfoxide, Sterile-filtered; nacalai tesque, 13408-64) was added. The medium used was Gibco DMEM, 1% P/S. The cellular supernatant was then removed, and anisomysin (Wako Pure Chemical Industries Ltd., 017-16861) was added to the anisomysin group and the anisomysin+Z-VAD-FMK group at a concentration of 10 μM. 10 μM of Z-VAD was added with anisomysin to the anisomysin+Z-VAD-FMK group. DMSO was added to the groups to which Z-VAD-FMK was not added. The cells were then cultured for 9 hours. The cellular form was observed under a phase difference microscope. A picture was taken after 9 hours.
After 9 hours, cell proteins were collected. The amount of protein expression was compared by Western blot. Anti-caspase 3 antibodies (cell signaling, 9662S), anti-p38 MAPK antibodies (cell signaling, #9212), and anti-pp38 MAPK antibodies (cell signaling, #4631S) were used as the antibodies. Further, anti-GAPDH antibodies (MBL, 3H12) were used as the internal standard.

Structure (SMILES): C[S+]([O-])c1ccc(-c2nc(-c3ccncc3)c(-c3ccc(F)cc3)[nH]2)cc1 (stereo not shown) [SB203580 hydrochloride, 4-(4-fluorophenyl)-2-(4-methylsulfinylphenyl)-5-(4-pyridyl)-1H-imidazole]
- water solubility [1]: water-soluble

Structure (SMILES): COC(=O)C[C@H](NC(=O)[C@H](C)NC(=O)[C@@H](NC(=O)OCc1ccccc1)C(C)C)C(=O)CF [Z-VAD-FMK] (Cbz-Val-Ala-Asp(OMe)-CH2F)
- Caspase 3 activation induced by anisomycin ([2]; 10 μM Z-VAD-FMK with 10 μM anisomycin): suppressed

Structure (SMILES): COc1ccc(C[C@H]2NC[C@H](O)[C@@H]2OC(C)=O)cc1 [anisomysin, (2R,3R,4S)-2-[(4-methoxyphenyl)methyl]-3,4-pyrrolidinediol-3-acetate]
- Phosphorylation of p38 ([2]; 10 μM): observed
- activation due to cleavage of caspase 3 ([2]; 10 μM): observed
